Data reported in patent US5932772A, “Separation processes” (Union Carbide Chemicals & Plastics Technology Corporation, priority 1998, dated 1999).
Read-outs that look alike come from different tables or passages of the source.

Legend:
[1] = Ligand partition coefficient between polar solvent and hexane; format: physicochemical
[2] = Kpartition in hydroformylation catalyst mixture extracted with hexane (layers analyzed for rhodium); format: physicochemical; conditions: acetonitrile catalyst solution after 1-dodecene hydroformylation, 74° C, equal volume hexane
Method: To this solution was then charged 5 milliliters of 1-dodecene. The solution was stirred and allowed to equilibrate until no increase in pressure was observed. The reactor was then pressurized to 100 psig with H2 :CO (1:1). Pressure was maintained between 100 and 95 psig until no further reaction had occurred. At this point, the catalyst containing solution was discharged from the reactor. 1.5 milliliters of the catalyst solution was transferred to a vial. To this was added 1.5 milliliters of hexane. The mixture was vigorously shaken for several minutes, then allowed to settle and phase separate. The layers were then separated and analyzed for rhodium content.

[3] = Aldehyde partition coefficient between nonpolar and polar solvent
Method: The efficiency of this extraction process can be measured by a partition coefficient Kp of the one or more products which is defined as follows: [formula]
The vial was shaken vigorously, then allowed to settle. An aliquot from both phases was removed and analyzed for aldehyde via GC. Table H indicates the partition coefficient, which was determined by the ratio of the GC area for the aldehydes (sum of n and iso) in the nonpolar phase to the polar phase.
In this case, the aldehyde contained iso-heptadecanal, n-heptadecanal, and a small amount of C16 alkenes and alkanes. Table H indicates the partition coefficient.
Table H indicates the partition coefficient.
Table H indicates partition coefficient.

[4] = 3-methyl-2-oxazolidinone/hexane, ambient temperature
[5] = DMF/hexane, ambient temperature
[6] = DMSO/hexane, ambient temperature
[7] = acetonitrile/hexane, ambient temperature
[8] = adiponitrile/hexane, ambient temperature
[9] = summary table, acetonitrile and hexane
[10] = caprolactone/hexane, ambient temperature
[11] = 2,2-dimethylbutane/acetonitrile

Row | SMILES | Kpartition [1, 7] | Kpartition [1, 9] | other results
1 | c1ccc(P(c2ccccc2)C2CCCCC2)cc1 [CHDPP, cyclohexyldiphenylphosphine, reference compound] | 0.5 | 0.4 | Kpartition [1, 4]: 1.2; Kpartition [1, 5]: 2; Kpartition [1, 6]: 0.5; Kpartition [1, 8]: 0.4
2 | N#Cc1ccc(P(c2ccc(C#N)cc2)c2ccc(C#N)cc2)cc1 [Ligand A] | 430 | 430 | Kpartition [1, 4]: > 1000; Kpartition [1, 5]: > 1000; Kpartition [1, 6]: > 1000; Kpartition [1, 8]: > 1000; Kpartition [1, 10]: > 1000
3 | N#Cc1cccc(P(c2cccc(C#N)c2)c2cccc(C#N)c2)c1 [Ligand B] | 470 | 470 | Kpartition [1, 5]: 470; Kpartition [1, 6]: 550; Kpartition [1, 10]: 960
4 | O=P(CCP(c1ccccc1)c1ccccc1)(c1ccccc1)c1ccccc1 [Ligand D] | 920 | 920 | Kpartition [1, 5]: 60; Kpartition [1, 6]: 440; Kpartition [1, 10]: 80
5 | O=P(CP(c1ccccc1)c1ccccc1)(c1ccccc1)c1ccccc1 [Ligand E] | 80 | 620 | Kpartition [1, 5]: 50; Kpartition [1, 6]: 620
6 | N#CCCP(CCC#N)CCC#N [Ligand F] | > 100 | > 100 | –
7 | COc1ccc(P(c2ccc(OC)cc2)c2ccc(OC)cc2)cc1 [Ligand G] | 11 | 11 | –
8 | CCCCCCCCCCCCCCP(c1ccc(C#N)cc1)c1ccc(C#N)cc1 [Ligand I] | 7 | 7 | –
9 | OCCCP(c1ccccc1)c1ccccc1 [Ligand J] | 26 | 26 | –
10 | N#CCCP(CCC#N)c1ccccc1 [Ligand L] | > 100 | – | Kpartition [1]: > 100
11 | c1ccc(-c2ccccc2Op2oc3ccccc3c3ccccc3o2)c(Op2oc3ccccc3c3ccccc3o2)c1 [Ligand M] | 25 | 25 | –
12 | N#Cc1cccc(Op2oc3ccccc3c3ccccc3o2)c1 [Ligand N] | 28 | 28 | –
13 | COc1cc(C(C)(C)C)c2op(Oc3ccccc3C#N)oc3c(C(C)(C)C)cc(OC)cc3c2c1 [Ligand O] | 5.2 | 5.2 | –
14 | N#Cc1ccc(Op2oc3ccccc3c3ccccc3o2)cc1 [Ligand P] | 30 | 30 | –
15 | COc1cc(C(C)(C)C)c2op(Oc3ccc([N+](=O)[O-])cc3)oc3c(C(C)(C)C)cc(OC)cc3c2c1 [Ligand Q] | 5.3 | 5.3 | –
16 | O=[N+]([O-])c1ccc(Op2oc3ccccc3c3ccccc3o2)cc1 [Ligand R] | 22 | 22 | Kpartition in catalyst mixture [2]: 5.3
17 | COc1cc(-c2cc(OC)cc(C(C)(C)C)c2Op2oc3ccc(OC)cc3c3cc(OC)ccc3o2)c(Op2oc3ccc(OC)cc3c3cc(OC)ccc3o2)c(C(C)(C)C)c1 [Ligand S] | greater than 100 | – | –
18 | C1CCC(P(C2CCCCC2)C2CCCCC2)CC1 [TCHP, tricyclohexylphosphine, reference compound] | 0.2 | < 0.2 | –
19 | CCCCCCCCP(CCCCCCCC)CCCCCCCC [TOP, tri-n-octylphosphine, reference compound] | < 0.01 | < 0.01 | –
20 | c1ccc(P(c2ccccc2)c2ccccc2)cc1 [TPP, triphenylphosphine, reference compound] | 1.3 | 1.3 | Kpartition [1, 4]: 4.3; Kpartition [1, 5]: 5.9; Kpartition [1, 6]: 2.3; Kpartition [1, 8]: 0.4; Kpartition [1, 10]: 3
21 | CCCCCCCCCCCC=O [dodecanal] | – | – | Kpartition (nonpolar to polar phase) [3, 11]: 4.6; Kpartition (nonpolar to polar phase) ([3]; heptane/acetonitrile): 4.4
22 | CCCCCCCCCCCCCCCCC=O [heptadecanal] | – | – | Kpartition (nonpolar to polar phase) ([3]; hexane/acetonitrile): 5.5
23 | CCCCCCCCCCCCCCC=O [pentadecanal] | – | – | Kpartition (nonpolar to polar phase) ([3]; hexane/acetonitrile): 6.8
24 | CCCCCCCCCCCCC=O [tridecanal] | – | – | Kpartition (nonpolar to polar phase) ([3]; 1-dodecene/acetonitrile): 4.3
25 | CCCCCCCCCCC=O [undecanal] | – | – | Kpartition (nonpolar to polar phase) ([3]; 1-decene/acetonitrile): 2.3; Kpartition (nonpolar to polar phase) [3, 11]: 3.3; Kpartition (nonpolar to polar phase) ([3]; cyclohexane/acetonitrile): 2.0; Kpartition (nonpolar to polar phase) ([3]; hexane/3-methyl-2-oxazolidinone): 2.6; Kpartition (nonpolar to polar phase) ([3]; nonane/acetonitrile): 1.9
